Among the data in ChEMBL document CHEMBL1154856, “Leuconicines A-G and (-)-eburnamaline, biologically active strychnan and eburnan alkaloids from Leuconotis” (J Nat Prod, 2009) are IC50 values, retold here.

What all share (assay type): functional, cell-based
The nature of test [1]: Cytotoxicity against vincristine-resistant human KB/VJ300 cells in presence of 0.1 ug/ml vincristine.
A short description of test [2]: Cytotoxicity against vincristine-resistant human KB/VJ300 cells in presence of 0.121 uM vincristine.
The test system of a further test is KB. Description: Cytotoxicity against vincristine-sensitive human KB cells.
Test [3] in a line: Cytotoxicity against vincristine-resistant human KB/VJ300 cells.

On to `CC[C@@H]1CN2CC[C@]34c5ccccc5-n5c3c(cc(C(=O)OC)c5=O)[C@H]1C[C@H]24` [LEUCONICINE B], for which the concentration for half-maximal inhibition (IC50) (usually the concentration needed to halve the response being measured) in test [1] was 1.98 µg/mL; in test [2], 5.27 µM; with KB, more than 25 µg/mL; in test [3], more than 25 µg/mL.

In the case of `CC[C@@H]1CN2CC[C@]34c5ccccc5-n5c3c(cc(C(N)=O)c5=O)[C@H]1C[C@H]24` [LEUCONICINE A], the half-inhibitory concentration (IC50) in test [1] was 2.57 µg/mL; in test [2] it was 7.12 µM; with KB, more than 25 µg/mL; in test [3], more than 25 µg/mL.

Turning to `CC[C@@H]1C[N+]2([O-])CC[C@]34c5ccccc5-n5c3c(cc(C(=O)OC)c5=O)[C@H]1C[C@@H]42` (some centres undefined) [LEUCONICINE G], the IC50 (in test [1]; with KB; in test [3]) was more than 25 µg/mL each time.

As to `CCC1=CN2CC[C@]34c5ccccc5-n5c3c(cc(C(=O)O)c5=O)[C@H]1C[C@H]24` [LEUCONICINE E], the half-maximal inhibitory concentration (IC50) in test [1] was 13.5 µg/mL; in test [2], 37.6 µM; with KB, more than 25 µg/mL; in test [3], more than 25 µg/mL.

Take `CC[C@@H]1C[N+]2([O-])CC[C@]34c5ccccc5-n5c3c(cc(C(N)=O)c5=O)[C@H]1C[C@@H]42` (some centres undefined) [LEUCONICINE F]: the IC50 (in test [1]; with KB; in test [3]) was more than 25 µg/mL each time.

On to `CC[C@@]12CCCN3CCc4c(n(c5ccccc45)[C@H](O)[C@@H]1O)[C@H]32`, for which the IC50 (in test [1]; in the test on KB; in test [3]) was more than 25 µg/mL in each case.

With `CCC1=CN2CC[C@]34c5ccccc5-n5c3c(cc(C(N)=O)c5=O)[C@H]1C[C@H]24` [LEUCONICINE C], the half-inhibitory concentration (IC50) in test [1] is 3.86 µg/mL; in test [2], 10.8 µM; in the test on KB, more than 25 µg/mL; in test [3], more than 25 µg/mL.

Take `CCC1=CN2CC[C@]34c5ccccc5-n5c3c(cc(C(=O)OC)c5=O)[C@H]1C[C@H]24` [MELODININE B]: the IC50 was 4.62 µg/mL in test [1], 12.3 µM in test [2], more than 25 µg/mL in the test with KB and more than 25 µg/mL in test [3].
